From the supplement of paper PMC10307832

Compound: COc1cc([C@@H]2c3cc4c(cc3[C@@H](O[C@@H]3O[C@@H]5CO[C@@H](C)O[C@H]5[C@H](O)[C@H]3O)[C@H]3COC(=O)[C@H]23)OCO4)cc(OC)c1O [Etoposide] + Nc1ncn([C@H]2C[C@H](O)[C@@H](CO)O2)c(=O)n1 [Decitabine] (partner 2 µM)
Assay: relative viability (nuclei count vs DMSO), 5 days (fraction); higher = more cells survive
Conditions: first compound 0.01 µM
In short: (§1)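 Relative viability divides the nuclei count in treated wells by that in vehicle wells. Lung cancer cell lines were seeded in 1536-well plates, dosed by pin tool the next day, and fixed and stained after 5 days in one step with final 0.05% Triton X-100, 1% formaldehyde and 1 ug/ml Hoechst. Dosing was a single drug or a fixed anchor-drug dose plus five library-drug doses (not always all listed) in √10 steps, and values are medians of duplicate plates imaged at 4×.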

Cell Line	relative viability
NCI-H1437	0.537
NCI-H1755	0.795
HCC-15	0.667
PC-3 [JPC-3]	0.813
EKVX	0.281
LC-2-ad	0.778
NCI-H1944	0.396
NCI-H1975	0.371
ABC-1	1.08
NCI-H358	0.229
RERF-LC-KJ	0.643

Same assay, conditions: first compound 0.03162 µM

Cell Line	relative viability
NCI-H1437	0.632
NCI-H1755	0.731
HCC-15	0.665
NCI-H1793	0.497
PC-3 [JPC-3]	0.921
EKVX	0.351
LC-2-ad	0.682
NCI-H1944	0.459
NCI-H1975	0.757
ABC-1	0.939
NCI-H358	0.212
RERF-LC-KJ	0.638

Same assay, conditions: first compound 0.1 µM

Cell Line	relative viability
NCI-H1437	0.568
NCI-H1755	0.712
HCC-15	0.668
NCI-H1793	0.454
PC-3 [JPC-3]	0.836
EKVX	0.282
LC-2-ad	0.922
NCI-H1944	0.384
NCI-H1975	0.4
ABC-1	0.62
NCI-H358	0.155
RERF-LC-KJ	0.54

Same assay, conditions: first compound 0.3162 µM

Cell Line	relative viability
NCI-H1437	0.441
NCI-H1755	0.622
HCC-15	0.286
NCI-H1793	0.345
PC-3 [JPC-3]	0.737
EKVX	0.31
LC-2-ad	0.741
NCI-H1944	0.36
NCI-H1975	0.249
ABC-1	0.619
NCI-H358	0.136
RERF-LC-KJ	0.579

Same assay, conditions: first compound 1 µM

Cell Line	relative viability
NCI-H1437	0.332
NCI-H1755	0.553
HCC-15	0.174
NCI-H1793	0.236
PC-3 [JPC-3]	0.692
EKVX	0.229
LC-2-ad	0.566
NCI-H1944	0.296
NCI-H1975	0.212
ABC-1	0.52
NCI-H358	0.103
RERF-LC-KJ	0.335

Compound: COc1cc([C@@H]2c3cc4c(cc3[C@@H](O[C@@H]3O[C@@H]5CO[C@@H](C)O[C@H]5[C@H](O)[C@H]3O)[C@H]3COC(=O)[C@H]23)OCO4)cc(OC)c1O [Etoposide] + NC(=O)Nc1cc(-c2cccc(F)c2)sc1C(=O)N[C@H]1CCCNC1 [AZD7762] (partner 0.2 µM)
Assay: as above
Conditions: first compound 0.01 µM
In short: as §1

Cell Line	relative viability
NCI-H1437	1.03
NCI-H1755	0.45
HCC-15	1.2
PC-3 [JPC-3]	0.782
EKVX	0.759
LC-2-ad	0.762
NCI-H1944	0.577
NCI-H1975	0.702
ABC-1	0.978
NCI-H358	0.512
RERF-LC-KJ	0.935

Same assay, conditions: first compound 0.03162 µM

Cell Line	relative viability
NCI-H1437	1.11
NCI-H1755	0.487
HCC-15	1.34
NCI-H1793	0.548
PC-3 [JPC-3]	0.92
EKVX	0.818
LC-2-ad	0.882
NCI-H1944	0.639
NCI-H1975	0.804
ABC-1	0.851
NCI-H358	0.527
RERF-LC-KJ	1.1

Same assay, conditions: first compound 0.1 µM

Cell Line	relative viability
NCI-H1437	1.14
NCI-H1755	0.407
HCC-15	1.32
NCI-H1793	0.282
PC-3 [JPC-3]	0.604
EKVX	0.268
LC-2-ad	0.853
NCI-H1944	0.276
NCI-H1975	0.508
ABC-1	0.468
NCI-H358	0.332
RERF-LC-KJ	0.583

Same assay, conditions: first compound 0.3162 µM

Cell Line	relative viability
NCI-H1437	1.07
NCI-H1755	0.403
HCC-15	1.01
NCI-H1793	0.474
PC-3 [JPC-3]	0.785
EKVX	0.344
LC-2-ad	0.741
NCI-H1944	0.377
NCI-H1975	0.658
ABC-1	0.425
NCI-H358	0.288
RERF-LC-KJ	0.861

Same assay, conditions: first compound 1 µM

Cell Line	relative viability
NCI-H1437	0.722
NCI-H1755	0.52
HCC-15	0.777
NCI-H1793	0.196
PC-3 [JPC-3]	0.73
EKVX	0.272
LC-2-ad	0.571
NCI-H1944	0.235
NCI-H1975	0.443
ABC-1	0.369
NCI-H358	0.266
RERF-LC-KJ	0.967

Compound: COc1cc([C@@H]2c3cc4c(cc3[C@@H](O[C@@H]3O[C@@H]5CO[C@@H](C)O[C@H]5[C@H](O)[C@H]3O)[C@H]3COC(=O)[C@H]23)OCO4)cc(OC)c1O [Etoposide] + CS(=O)(=O)N1CCN(Cc2cc3nc(-c4cccc5[nH]ncc45)nc(N4CCOCC4)c3s2)CC1 [Pictilisib] (partner 1 µM)
Assay: as above
Conditions: first compound 0.01 µM
In short: as §1

Cell Line	relative viability
NCI-H1437	0.588
NCI-H1755	0.434
HCC-15	0.758
NCI-H1793	0.321
PC-3 [JPC-3]	0.689
EKVX	0.447
LC-2-ad	0.448
NCI-H1944	0.362
NCI-H1975	0.304
ABC-1	0.765
NCI-H358	0.382
RERF-LC-KJ	0.533

Same assay, conditions: first compound 0.03162 µM

Cell Line	relative viability
NCI-H1437	0.504
NCI-H1755	0.473
HCC-15	0.713
NCI-H1793	0.433
PC-3 [JPC-3]	0.819
EKVX	0.429
LC-2-ad	0.595
NCI-H1944	0.39
NCI-H1975	0.328
ABC-1	0.711
NCI-H358	0.336
RERF-LC-KJ	0.586

Same assay, conditions: first compound 0.1 µM

Cell Line	relative viability
NCI-H1437	0.21
NCI-H1755	0.316
HCC-15	0.428
PC-3 [JPC-3]	0.576
EKVX	0.208
LC-2-ad	0.318
NCI-H1944	0.27
NCI-H1975	0.225
ABC-1	0.386
NCI-H358	0.259
RERF-LC-KJ	0.459

Same assay, conditions: first compound 0.3162 µM

Cell Line	relative viability
NCI-H1437	0.209
NCI-H1755	0.426
HCC-15	0.292
NCI-H1793	0.313
PC-3 [JPC-3]	0.785
EKVX	0.309
LC-2-ad	0.237
NCI-H1944	0.294
NCI-H1975	0.276
ABC-1	0.345
NCI-H358	0.23
RERF-LC-KJ	0.529

Same assay, conditions: first compound 1 µM

Cell Line	relative viability
NCI-H1437	0.122
NCI-H1755	0.269
HCC-15	0.141
NCI-H1793	0.243
PC-3 [JPC-3]	0.497
EKVX	0.241
LC-2-ad	0.16
NCI-H1944	0.222
NCI-H1975	0.168
ABC-1	0.228
NCI-H358	0.16
RERF-LC-KJ	0.365

Compound: CC1=C(N=C(N=C1N)[C@H](CC(=O)N)NC[C@@H](C(=O)N)N)C(=O)N[C@@H]([C@H](C2=CN=CN2)OC3C(C(C(C(O3)CO)O)O)OC4C(C(C(C(O4)CO)O)OC(=O)N)O)C(=O)N[C@H](C)[C@H]([C@H](C)C(=O)N[C@@H]([C@@H](C)O)C(=O)NCCC5=NC(=CS5)C6=NC(=CS6)C(=O)NCCC[S+](C)C)O [Bleomycin] + O=C(c1cc(Cc2n[nH]c(=O)c3ccccc23)ccc1F)N1CCN(C(=O)C2CC2)CC1 [Olaparib] (partner 8 µM)
Assay: as above
Conditions: first compound 0.01 µM; main component drawn
In short: as §1

Cell Line	relative viability
NCI-H1437	0.571
NCI-H1755	0.782
HCC-15	0.629
NCI-H1793	0.845
PC-3 [JPC-3]	0.932
EKVX	0.719
LC-2-ad	0.574
NCI-H1944	0.259
NCI-H1975	0.565
ABC-1	0.851
NCI-H358	0.475
RERF-LC-KJ	0.425

Same assay, conditions: first compound 0.03162 µM; main component drawn

Cell Line	relative viability
NCI-H1437	0.593
NCI-H1755	0.79
HCC-15	0.689
NCI-H1793	0.675
PC-3 [JPC-3]	1.13
EKVX	0.563
LC-2-ad	0.431
NCI-H1944	0.252
NCI-H1975	0.387
ABC-1	1.04
NCI-H358	0.713
RERF-LC-KJ	0.385

Same assay, conditions: first compound 0.1 µM; main component drawn

Cell Line	relative viability
NCI-H1437	0.499
NCI-H1755	0.833
HCC-15	0.508
NCI-H1793	0.589
PC-3 [JPC-3]	0.825
EKVX	0.501
LC-2-ad	0.287
NCI-H1944	0.264
NCI-H1975	0.394
ABC-1	0.849
NCI-H358	0.657
RERF-LC-KJ	0.325

Same assay, conditions: first compound 0.3162 µM; main component drawn

Cell Line	relative viability
NCI-H1437	0.397
NCI-H1755	0.639
HCC-15	0.224
NCI-H1793	0.191
PC-3 [JPC-3]	0.481
EKVX	0.244
LC-2-ad	0.235
NCI-H1944	0.18
NCI-H1975	0.169
ABC-1	0.818
NCI-H358	0.294
RERF-LC-KJ	0.162

Same assay, conditions: first compound 1 µM; main component drawn

Cell Line	relative viability
NCI-H1437	0.378
NCI-H1755	0.599
HCC-15	0.238
NCI-H1793	0.195
PC-3 [JPC-3]	0.486
EKVX	0.231
LC-2-ad	0.219
NCI-H1944	0.151
NCI-H1975	0.181
ABC-1	0.232
NCI-H358	0.227
RERF-LC-KJ	0.16
